# Molecular target: T1, PIP4K2C (Homo sapiens, UniProt Q8TBX8)
# T1 sequence (Q8TBX8 1-421): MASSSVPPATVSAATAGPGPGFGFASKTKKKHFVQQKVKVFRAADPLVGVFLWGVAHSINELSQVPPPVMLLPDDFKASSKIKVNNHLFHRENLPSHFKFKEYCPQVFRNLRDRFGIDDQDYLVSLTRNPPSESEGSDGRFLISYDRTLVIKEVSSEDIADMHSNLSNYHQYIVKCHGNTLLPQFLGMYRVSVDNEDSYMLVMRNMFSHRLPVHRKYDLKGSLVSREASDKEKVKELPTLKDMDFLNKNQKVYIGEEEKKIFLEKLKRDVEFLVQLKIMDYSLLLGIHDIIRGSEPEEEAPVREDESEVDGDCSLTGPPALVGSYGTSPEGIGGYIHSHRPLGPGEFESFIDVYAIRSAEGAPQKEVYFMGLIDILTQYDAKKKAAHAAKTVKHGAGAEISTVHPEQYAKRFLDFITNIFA
# Test: HiBiT PIP4K2C degradation assay in MOLT-4 cells (endogenous PIP4K2C C-terminally tagged with HiBiT)
# Format: cell-based
# Set-up: untagged in primary human PBMCs and monocyte-derived dendritic cells
# Conditions: 6 hours of incubation time, rather than 24 hours; MOLT-4, top concentration 10 micromolar; read-out: HiBIT-degradation MOLT4 PIP4k2C DC50 (6 hours, marked *)
# Excerpt: Example B-2: HiBiT PIP4K2C degradation assay
# Materials: MOLT-4, a human T lymphoblast cell line (see https://www.atcc.org/products/crl-1582, herein incorporated by reference in its entirety), was genetically engineered using CRISPR-Cas9 by Synthego Corporation (Redwood City, CA) to C-terminally tag endogenous PIP4K2C with HiBiT peptide. Following clonal selection, genotype was confirmed by Sanger sequencing. MO LT-4 were maintained using RPMI-1640 medium from Gibco (Grand Island, NY, catalog number 11875-085) supplemented with 10% fetal bovine serum (FBS) from VWR (Philadelphia, PA, catalog number 97068-085). For HiBiT assays the cells were resuspended in RPMI-1640 medium without phenol read from Gibco (Grand Island, NY, catalog number 11835-030) supplemented with 10% FBS. Nano-Glo® HiBiT Lytic Assay System was purchased from Promega (Madison, WI, Catalog number N3030). Cell culture flasks and 384-well microplates were purchased from Corning (Glendale, AZ).
# To study PIP4K2C degradation, 384-well plates were plated with a 10-point dose response curve, 3-fold dilution, in duplicate with a top starting concentration of 10 micromolar. Subsequently 22,500 cells were added to each well and incubated at 37 C in 5% C02 for 24 hours or 6 hours. At the end of the incubation time, cells were treated with the Nano-Glo® HiBiT Lytic Detection System following the manufacturer's instructions. Luminescence was measured with a PHERAstar FSX plate reader (BMG Labtech, Cary, NC). The Levenberg-Marquardt algorithm was used to fit a Hill equation to dose-response data to calculate DC50 values (see Table 6).
row,DC50 [nM],SMILES
1,< 500,"Cn1nc(C2CCC(=O)NC2=O)c2ccc(C3CCN(CC4CCN(C(=O)O[C@H]5CC[C@H](Nc6ncc(F)c(-c7cccc(-c8ccccc8)c7)n6)CC5)CC4)CC3)cc21 (stereo partly drawn) [Compound 647, trans-4-((4-([1,1′-biphenyl]-3-yl)-5-fluoropyrimidin-2-yl)amino)cyclohexyl 4-((4-(3-(2,6-dioxopiperidin-3-yl)-1-methyl-1H-indazol-6-yl)piperidin-1-yl)methyl)piperidine-1-carboxylate]"
2,< 500,"O=C1CCC(Nc2ccc(N3CCC(N4CCC(C(=O)N[C@H]5CC[C@H](Nc6ncc(F)c(-c7cccc(N8CCOC8=O)c7)n6)CC5)CC4)CC3)c(F)c2)C(=O)N1 (stereo partly drawn) [Compound 596, trans-1′-(4-((2,6-dioxopiperidin-3-yl)amino)-2-fluorophenyl)-N-(4-((5-fluoro-4-(3-(2-oxooxazolidin-3-yl)phenyl)pyrimidin-2-yl)amino)cyclohexyl)-[1,4′-bipiperidine]-4-carboxamide]"
3,< 500,"O=C1CCC(Nc2ccc(N3CCC(N4CCC(C(=O)N[C@H]5CC[C@H](Nc6ncc(F)c(-c7cccc(N8CCCCC8)c7)n6)CC5)CC4)C(F)C3)c(F)c2)C(=O)N1 (stereo partly shown) [Compound 523, 1′-(4-((2,6-dioxopiperidin-3-yl)amino)-2-fluorophenyl)-3′-fluoro-N-((1r,4r)-4-((5-fluoro-4-(3-(piperidin-1-yl)phenyl)pyrimidin-2-yl)amino)cyclohexyl)-[1,4′-bipiperidine]-4-carboxamide]"
4,< 500,"O=C1CCC(Nc2ccc(N3CCN([C@H]4CC[C@H](C(=O)N[C@H]5CC[C@H](Nc6ncc(Cl)c(-c7cccc(-n8ccccc8=O)c7)n6)CC5)CC4)CC3)c(F)c2)C(=O)N1 (stereo partly drawn) [Compound 632, trans-(1r,4R)—N-((1r,4R)-4-((5-chloro-4-(3-(2-oxopyridin-1 (2H)-yl)phenyl)pyrimidin-2-yl)amino)cyclohexyl)-4-(4-(4-((2,6-dioxopiperidin-3-yl)amino)-2-fluorophenyl)piperazin-1-yl)cyclohexane-1-carboxamide]"
5,< 500,"O=C1CCC(Nc2ccc(C3CCN([C@H]4CC[C@H](C(=O)N[C@H]5CC[C@H](Nc6ncc(F)c(-c7cccc(N8CCOC8=O)c7)n6)CC5)CC4)CC3)c(F)c2)C(=O)N1 (stereo partly drawn) [Compound 446, trans-(1r,4R)-4-(4-(4-((2,6-dioxopiperidin-3-yl)amino)-2-fluorophenyl)piperidin-1-yl)-N-((1r,4R)-4-((5-fluoro-4-(3-(2-oxooxazolidin-3-yl)phenyl)pyrimidin-2-yl)amino)cyclohexyl)cyclohexane-1-carboxamide]"
6,< 500,"O=C1CCC(Nc2ccc(N3CCC(N4CCC(C(=O)N[C@H]5CC[C@H](Nc6ncc(F)c(-c7cccc(-c8ccc[nH]c8=O)c7)n6)CC5)CC4)C(F)(F)C3)c(F)c2)C(=O)N1 (stereo partly drawn) [Compound 599, 1′-(4-((2,6-dioxopiperidin-3-yl)amino)-2-fluorophenyl)-3′,3′-difluoro-N-(trans-4-((5-fluoro-4-(3-(2-oxo-1,2-dihydropyridin-3-yl)phenyl)pyrimidin-2-yl)amino)cyclohexyl)-[1,4′-bipiperidine]-4-carboxamide]"
7,< 500,"O=C1CCC(Nc2ccc(C3CCN([C@H]4CC[C@H](C(=O)N[C@H]5CC[C@H](Nc6ncc(F)c(-c7cccc(N8CCCCC8=O)c7)n6)CC5)CC4)CC3)c(F)c2)C(=O)N1 (stereo partly drawn) [Compound 447, trans-(1r,4R)-4-(4-(4-((2,6-dioxopiperidin-3-yl)amino)-2-fluorophenyl)piperidin-1-yl)-N-((1r,4R)-4-((5-fluoro-4-(3-(2-oxopiperidin-1-yl)phenyl)pyrimidin-2-yl)amino)cyclohexyl)cyclohexane-1-carboxamide]"
8,< 500,"O=C1CC[C@@H](Nc2ccc(C3CCN([C@H]4CC[C@H](NC(=O)[C@H]5CC[C@H](Nc6ncc(F)c(-c7cccc(-c8ccc[nH]c8=O)c7)n6)CC5)CC4)CC3)c(F)c2)C(=O)N1 (single isomer, unassigned) [Compound 419]"
9,< 500,"O=C1CCC(Nc2ccc(N3CCN([C@H]4CC[C@H](NC(=O)[C@H]5CC[C@H](Nc6ncc(F)c(-c7cccc(-c8ccc[nH]c8=O)c7)n6)CC5)CC4)CC3)c(F)c2)C(=O)N1 (stereo partly drawn) [Compound 382, trans-N-(trans-4-(4-(4-((2,6-dioxopiperidin-3-yl)amino)-2-fluorophenyl)piperazin-1-yl)cyclohexyl)-4-((5-fluoro-4-(3-(2-oxo-1,2-dihydropyridin-3-yl)phenyl)pyrimidin-2-yl)amino)cyclohexane-1-carboxamide]"
10,< 500,"O=C1CC[C@@H](Nc2ccc(C3CCN(CC4(O)CCN(C(=O)[C@H]5CC[C@H](Nc6ncc(F)c(-c7cccc(-n8ccccc8=O)c7)n6)CC5)CC4)CC3)c(F)c2)C(=O)N1 (single isomer, unassigned) [Compound 442]"

# Same assay, conditions: 24 hours incubation, MOLT-4, top concentration 10 micromolar; read-out: HiBIT-degradation MOLT4 PIP4k2C 24 hours DC50
row,DC50 [nM],SMILES
1,< 500,"O=C1CCC(Nc2ccc(C3CCN(C4CCN(CCC(=O)N5CCC(Nc6ncc(F)c(-c7cccc(-n8ccccc8=O)c7)n6)CC5)CC4)CC3)c(F)c2)C(=O)N1 (stereo not shown) [Compound 343, 3-((3-fluoro-4-(1′-(3-(4-((5-fluoro-4-(3-(2-oxopyridin-1(2H)-yl)phenyl)pyrimidin-2-yl)amino)piperidin-1-yl)-3-oxopropyl)-[1,4′-bipiperidin]-4-yl)phenyl)amino)piperidine-2,6-dione]"
2,< 500,"O=C1CCC(Nc2ccc(N3CCN([C@H]4CC[C@H](CNC(=O)[C@H]5CCC[C@@H](Nc6ncc(F)c(-c7cccc(-n8ccccc8=O)c7)n6)C5)CC4)CC3)c(F)c2)C(=O)N1 (relative stereo) [Compound 352, cis-N-((trans-4-(4-(4-((2,6-dioxopiperidin-3-yl)amino)-2-fluorophenyl)piperazin-1-yl)cyclohexyl)methyl)-3-((5-fluoro-4-(3-(2-oxopyridin-1(2H)-yl)phenyl)pyrimidin-2-yl)amino)cyclohexane-1-carboxamide]"
3,< 500,"O=C1CCC(Nc2ccc(N3CCC(N4CCC(CNC(=O)[C@H]5CCC[C@@H](Nc6ncc(F)c(-c7cccc(-n8ccccc8=O)c7)n6)C5)CC4)CC3)cc2)C(=O)N1 (relative stereo) [Compound 297, cis-N-((1′-(4-((2,6-dioxopiperidin-3-yl)amino)phenyl)-[1,4′-bipiperidin]-4-yl)methyl)-3-((5-fluoro-4-(3-(2-oxopyridin-1(2H)-yl)phenyl)pyrimidin-2-yl)amino)cyclohexane-1-carboxamide]"
4,< 500,"Cn1c(=O)n(C2CCC(=O)NC2=O)c2ccc(C3CCN(C4CCN(CC(=O)N5CCC(Nc6ncc(Cl)c(-c7cccc(-c8ccccc8)c7)n6)CC5)CC4)CC3)cc21 (stereo not shown) [Compound 72, 3-(5-(1′-(2-(4-((4-([1,1′-biphenyl]-3-yl)-5-chloropyrimidin-2-yl)amino)piperidin-1-yl)-2-oxoethyl)-[1,4′-bipiperidin]-4-yl)-3-methyl-2-oxo-2,3-dihydro-1H-benzo[d]imidazol-1-yl)piperidine-2,6-dione]"
5,< 500,"O=C1CCC(N2Cc3cc(C4CCN(CC(=O)N5CCN(C(=O)[C@H]6CCC[C@@H](Nc7ncc(Cl)c(-c8cccc(-c9ccccc9)c8)n7)C6)CC5)CC4)ccc3C2=O)C(=O)N1 (relative stereo) [Compound 54, cis-3-(5-(1-(2-(4-(3-((4-([1,1′-biphenyl]-3-yl)-5-chloropyrimidin-2-yl)amino)cyclohexane-1-carbonyl)piperazin-1-yl)-2-oxoethyl)piperidin-4-yl)-1-oxoisoindolin-2-yl)piperidine-2,6-dione]"

# Same assay, conditions: read-out: HiBIT-degradation MOLT4 PIP4k2C 24 hours DC50; 24 hours incubation, MOLT-4, top concentration 10 micromolar
row,SMILES,DC50 [nM]
1,"O=C1CCC(n2c(=O)oc3cc(C4CCN(CC5CCN(CC(=O)N[C@H]6CC[C@H](Nc7ncc(F)c(C8CCCN(C(=O)C9CC9)C8)n7)CC6)CC5)CC4)ccc32)C(=O)N1 (stereo partly drawn) [Compound 359, trans-N-(4-((4-(1-(cyclopropanecarbonyl)piperidin-3-yl)-5-fluoropyrimidin-2-yl)amino)cyclohexyl)-2-(4-((4-(3-(2,6-dioxopiperidin-3-yl)-2-oxo-2,3-dihydrobenzo[d]oxazol-6-yl)piperidin-1-yl)methyl)piperidin-1-yl)acetamide]",< 500
